Data on 25 compounds can be found in patent US20230416262A1, “TRPML MODULATORS” (Casma Therapeutics, Inc., priority 2020, published 2023).

Where only a bound is given, the exact number is not on record here.

The first test has as its system THP-1 cells. Put plainly: Lamp1 lysosomal exocytosis assay. As to conditions: Homo sapiens, 55 min, 55 min incubation, top dose 20 μM. The format is cell-based. On the procedure:
For the Lamp1 lysosomal exocytosis assay, a human monocytic suspension cell line (THP-1) was used. Cells in culture should be used between a density of […] and 1.2e6/mL on the day of the assay. For each 96-well assay plate to be used, pellet 11e6 THP-1 cells at 330×g for 5 min in a 50 mL conical tube, aspirate media and resuspend in 22 mLs of RPMI 1640/10% FBS media for a final cell concentration of 5e5/mL. Prior to addition of cells to the assay plate, perform a 7 pt dilution curve using a top dose of compound at 2 mM and use a 3-fold serial dilution, the 8th point is DMSO only. Final top dose of compound in the assay was 20 μM. 2 μL of each serial dilution was transferred to a new 96-well v-bottom assay plate. 198 μL of cells (1e5 total cells/well) was prepared as above in each well of the assay plate and incubated at 37° C./5% CO2/95% RH for 55 min. After the 55 min incubation, cells were pelleted for 5 min at 4 C at 400×g in a tabletop centrifuge. The media was separated from the cell pellets in the plate. The pellets were washed using 200 μL ice cold buffer (PBS Ca^++/Mg^++ containing 2% final BSA and 80 μM final Dynasore). Cells were pelleted again at 400×g-5 min in a 4° C. tabletop centrifuge. Buffer was separated from cells. Each well was suspended in 75 uL Lamp1-PE antibody buffer (PBS Ca^++/Mg^++ containing 2% final BSA with 80 uM final Dynasore and 1:800 final dilution of Lamp 1-PE labeled antibody). After a 45 min antibody incubation on ice, 25 μL of sytox green was added (I drop/mL buffer), and each well was mixed and incubated for an additional 15 min on ice. After the 15 min sytox green incubation, 100 μL of ice-cold buffer (PBS Ca^++/Mg^++ containing 2% final BSA and 80 uM final Dynasore) was added and cells were pelleted for 5 min at 400×g. The buffer was removed and each sample was resuspended in 100 uL of ice-cold buffer (PBS Ca^++/Mg^++ containing 2% final BSA and 80 μM final Dynasore). FACs gating strategy: FACS analyze for sytox green (A488) and Lamp1-PE (DsRed). First gate against FSC-A/SSC-A to find non-fragmented or ‘live’ THP-1 cells. Next gate against FITC-A/FSC-A to omit sytox green positive cells. Then gate for FSC-A/FSC-H to remove any doublet cells. The last gate was a histogram for PE. The statistics for ‘count’ and ‘geometric mean fluorescence intensity’ (gWFI) for PE were repoted on the last gate.
Compounds having an activity designated as “++++” provided an exocytosis readout of ≤0.50 μM; compounds having an activity designated as “+++” provided an exocytosis readout of 0.51-1.00 μM; compounds having an activity designated as “++” provided an exocytosis readout of 1.01-5.00 μM; and compounds having an activity designated as “+” provided an exocytosis readout of ≥5.01 μM
A word on the EC50: it is the concentration at which the effect is half-maximal. For `O=C(OCc1ccccc1)N1CCC2(CC1)CN(S(=O)(=O)c1ccc(C(F)F)cc1)c1cnccc12` [Compound I-135, benzyl 1′-[4-(difluoromethyl)benzenesulfonyl]-1′,2′-dihydrospiro[piperidine-4,3′-pyrrolo[2,3-c]pyridine]-1-carboxylate], the EC50 was no more than 0.5 µM.
Same read-out and setting: under `O=C(N1CCCC1)N1CCC2(CC1)CN(S(=O)(=O)c1ccc(C(F)F)cc1)c1ccccc12` [Compound I-136, (1-((4-(difluoromethyl)phenyl)sulfonyl)spiro[indoline-3,4′-piperidin]-1′-yl)(pyrrolidin-1-yl)methanone] stands no less than 5.01 µM; under `O=S(=O)(c1ccc(C(F)F)cc1)N1CC2(CCC(F)(F)CC2)c2ccccc21` [Compound I-138, 1′-[4-(difluoromethyl)benzenesulfonyl]-4,4-difluoro-1′,2′-dihydrospiro[cyclohexane-1,3′-indole]], no less than 5.01 µM; under `O=C(OCc1ccccn1)N1CCC2(CC1)CN(S(=O)(=O)c1ccc(C(F)F)cc1)c1ccccc12` [Compound I-141, pyridin-2-ylmethyl 1-((4-(difluoromethyl)phenyl)sulfonyl)spiro[indoline-3,4′-piperidine]-1′-carboxylate], 1.01 to 5 µM.
Same read-out and setting: the figure for `O=C(NC1CC1)N1CCC2(CC1)CN(S(=O)(=O)c1ccc(C(F)F)cc1)c1ccccc12` [Compound I-142, N-cyclopropyl-1-[4-(difluoromethyl)benzenesulfonyl]-1,2-dihydrospiro[indole-3,4′-piperidine]-1′-carboxamide] is no less than 5.01 µM; for `O=C(NCc1ccccc1)C1CCC2(CC1)CN(S(=O)(=O)c1ccc(C(F)F)cc1)c1ccccc12` (stereo not shown) [Compound I-143, N-benzyl-1′-((4-(difluoromethyl)phenyl)sulfonyl)spiro[cyclohexane-1,3′-indoline]-4-carboxamide] it is no less than 5.01 µM; for `O=S1(=O)CCC2(CC1)CN(S(=O)(=O)c1ccc(C(F)F)cc1)c1ccccc12` [Compound I-152, 1-((4-(difluoromethyl)phenyl)sulfonyl)-2′,3′,5′,6′-tetrahydrospiro[indoline-3,4′-thiopyran] 1′,1′-dioxide] it is no less than 5.01 µM.
With `CN(C)S(=O)(=O)c1ccc(S(=O)(=O)N2CC3(CCN(Cc4ccccc4)CC3)c3c(F)cccc32)cc1` [Compound I-155, 4-((1′-benzyl-4-fluorospiro[indoline-3,4′-piperidin]-1-yl)sulfonyl)-N,N-dimethylbenzenesulfonamide], the EC50 was no more than 0.5 µM.

The subject of a further test is TFEB. Put plainly: TFEB nuclear translocation assay. It is filed as cell-based. As to conditions: Homo sapiens; HeLa wt or HeLa TRPML1 KO cells, treated for 2 hrs; ratio of nuclear to ring-region TFEB intensity. The method in brief: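 HeLa wild-type or TRPML1 KO cells treated 2 h with compound at 37 °C, PFA-fixed, immunostained for TFEB (Alexa 488) with Hoechst nuclei. Imaged at ×20, four fields/well. Value is ratio of nuclear to perinuclear-ring TFEB intensity, with nuclei counts.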
As to `CN(C)S(=O)(=O)c1ccc(S(=O)(=O)N2CC3(CCN(CC4CCOCC4)C3)c3ccccc32)cc1` (stereo not shown) [Compound I-96, N,N-dimethyl-4-({1′-[(oxan-4-yl)methyl]-1,2-dihydrospiro[indole-3,3′-pyrrolidin]-1-yl}sulfonyl)benzene-1-sulfonamide], the concentration giving a half-maximal response (EC50) was in the range of 2.01 to 8 µM.
With `CN(C)S(=O)(=O)c1ccc(S(=O)(=O)N2CC3(CN(Cc4ccccc4)C3)c3ccccc32)cc1` [Compound I-102, 4-({1-benzyl-1′,2′-dihydrospiro[azetidine-3,3′-indol]-1′-yl}sulfonyl)-N,N-dimethylbenzene-1-sulfonamide], the EC50 is 2.01 to 8 µM.
The same measure, in the same setting: the figure for `CN(C)S(=O)(=O)c1ccc(S(=O)(=O)N2CC3(CCN(c4ccc(Cl)cc4F)CC3)c3ccccc32)cc1` [Compound I-106, 4-{[1′-(4-chloro-2-fluorophenyl)-1,2-dihydrospiro[indole-3,4′-piperidin]-1-yl]sulfonyl}-N,N-dimethylbenzene-1-sulfonamide] is no more than 2 µM; for `O=C(OCc1ccccc1)N1CCC2(C1)CN(S(=O)(=O)Cc1ccccc1)c1ccccc12` (stereo not shown) [Compound I-115, benzyl 1-phenylmethanesulfonyl-1,2-dihydrospiro[indole-3,3′-pyrrolidine]-1′-carboxylate] it is 2.01 to 8 µM.
On the same count and under the same terms, under `CC(CS(=O)(=O)N1CC2(CCCC2)c2ccccc21)c1ccccc1` (stereo not shown) [Compound I-117, 1′-(2-phenylpropanesulfonyl)-1′,2′-dihydrospiro[cyclopentane-1,3′-indole]] stands no less than 10 µM.
As for `O=S(=O)(Cc1ccccc1)N1CC2(CCN(CC(F)(F)F)C2)c2ccccc21` (stereo not shown) [Compound I-120], the EC50 is 2.01 to 8 µM.
On the same count and under the same terms, the figure for `O=S(=O)(Cc1ccccc1)N1CC2(CCCCC2)c2ccccc21` [Compound I-121, 1′-(benzylsulfonyl)spiro[cyclohexane-1,3′-indoline]] is no more than 2 µM; for `Cc1cc2n(n1)C1(CCCCC1)CN2S(=O)(=O)c1ccc(S(=O)(=O)N(C)C)cc1` [Compound I-123, N,N-dimethyl-4-({6′-methyl-1′,2′-dihydrospiro[cyclohexane-1,3′-pyrazolo[1,5-a]imidazol]-1′-yl}sulfonyl)benzene-1-sulfonamide] it is 2.01 to 8 µM; for `CN(C)S(=O)(=O)c1ccc(S(=O)(=O)N2CC3(CCCCC3)n3nccc32)cc1` [Compound I-125, 4-({1′,2′-dihydrospiro[cyclohexane-1,3′-pyrazolo[1,5-a]imidazol]-1′-yl}sulfonyl)-N,N-dimethylbenzene-1-sulfonamide] it is no less than 10 µM.
On the same count and under the same terms, the figure for `CN(C)S(=O)(=O)c1ccc(S(=O)(=O)N2CCC3(CCCCC3)c3ccccc32)cc1` [Compound I-128, 4-({2′,3′-dihydro-1′H-spiro[cyclohexane-1,4′-quinolin]-1′-yl}sulfonyl)-N,N-dimethylbenzene-1-sulfonamide] is no more than 2 µM; for `CN(C)S(=O)(=O)c1ccc(S(=O)(=O)N2CC3(CCN(CC(F)(F)F)CC3)n3nccc32)cc1` [Compound I-144, N,N-dimethyl-4-{[1-(2,2,2-trifluoroethyl)-1′,2′-dihydrospiro[piperidine-4,3′-pyrazolo[1,5-a]imidazol]-1′-yl]sulfonyl}benzene-1-sulfonamide] it is no less than 10 µM; for `Cc1cc2n(n1)C1(CCCCC1)CN2S(=O)(=O)c1ccc(S(=N)(=O)N(C)C)cc1` (stereo not shown) [Compound I-146, N,N-dimethyl-4-({6′-methyl-1′,2′-dihydrospiro[cyclohexane-1,3′-pyrazolo[1,5-a]imidazol]-1′-yl}sulfonyl)benzene-1-sulfonoimidamide] it is no less than 10 µM.
Same read-out and setting: under `Cc1cc2n(n1)C1(CCCCC1)CN2S(=O)(=O)c1ccc2c(c1)C(C)(C)CO2` [Compound I-147, 1′-[(3,3-dimethyl-2,3-dihydro-1-benzofuran-5-yl)sulfonyl]-6′-methyl-1′,2′-dihydrospiro[cyclohexane-1,3′-pyrazolo[1,5-a]imidazole]] stands no less than 10 µM; under `CC(c1ccc(S(=O)(=O)N(C)C)cc1)N1CC2(CCCCC2)c2ccccc21` (stereo not shown) [Compound I-150, 4-(1-{1′,2′-dihydrospiro[cyclohexane-1,3′-indol]-1′-yl}ethyl)-N,N-dimethylbenzene-1-sulfonamide], no less than 10 µM; under `N=S(=O)(c1ccc(S(=O)(=O)N2CC3(CCCCC3)c3ccccc32)cc1)C1CC1` (stereo not shown) [Compound I-151, 1′-((4-(cyclopropanesulfonimidoyl)phenyl)sulfonyl)spiro[cyclohexane-1,3′-indoline]], no less than 10 µM.
As to `CN(C)S(=O)(=O)c1ccc(S(=O)(=O)N2CC3(CCCCC3)n3nc(C(F)(F)F)cc32)cc1` [Compound I-153, N,N-dimethyl-4-{[6′-(trifluoromethyl)-1′,2′-dihydrospiro[cyclohexane-1,3′-pyrazolo[1,5-a]imidazol]-1′-yl]sulfonyl}benzene-1-sulfonamide], the EC50 is no more than 2 µM.
Take `CN(C)S(=O)(=O)c1ccc(S(=O)(=O)N2CC3(CCCCC3)n3nc(C4CC4)cc32)cc1` [Compound I-257, 4-({6′-cyclopropyl-1′,2′-dihydrospiro[cyclohexane-1,3′-pyrazolo[1,5-a]imidazol]-1′-yl}sulfony1)-N,N-dimethylbenzene-1-sulfonamide]: the EC50 is no more than 2 µM.
